Laboratory results reported in patent US7695736B2, “Reconstitutable parenteral composition” (Pfizer Inc., priority 2001, dated 2010).

Legend:
COX-1 = COX-1 (Homo sapiens, UniProt P23219); conditions: in vitro; cited from earlier work
[1] = tested on: patients requiring extraction of two ipsilateral impacted third molars; experiment: placebo-controlled single-dose preemptive analgesia study, third molar extraction; format: in vivo, human
Protocol: Beginning at 30 minutes after closure of surgery, level of pain was assessed every two hours up to 24 hours, except that patients were not awakened for pain assessments. Pain was assessed by the patient on a 0-3 scale and on a chart representing a continuum from “no pain” to “worst pain”. Rescue medication was administered on demand by the patient. At the last scheduled assessment, or immediately prior to administration of rescue medication, the patient was asked to evaluate the effectiveness of the study medication to delay pain. Time to rescue medication (TRM) was analyzed using survival analysis techniques. The median time to event for each treatment group was calculated using the Kaplan-Meier product limit estimator, including the adjustment described by Miller (1981) in Survival Analysis, pp. 74-75. New York: John Wiley & Sons. Ninety five percent (95%) confidence intervals for the median time to event were calculated using the method of Simon & Lee (1982), Cancer Treat. Rep. 66, 37-42. […] Patients who dropped out for reasons other than administration of rescue medication were censored at the time they dropped out of the study.

[2] = human pharmacokinetic study: blood plasma concentration of valdecoxib; format: in vivo
Protocol: Subjects drank 180 ml water one, two and three hours postdose.

physchem = conditions: 20 °C, thermodynamic from solid
[3] = single preemptive intravenous dose 40 mg

Sequence of COX-1 (P23219 24-599): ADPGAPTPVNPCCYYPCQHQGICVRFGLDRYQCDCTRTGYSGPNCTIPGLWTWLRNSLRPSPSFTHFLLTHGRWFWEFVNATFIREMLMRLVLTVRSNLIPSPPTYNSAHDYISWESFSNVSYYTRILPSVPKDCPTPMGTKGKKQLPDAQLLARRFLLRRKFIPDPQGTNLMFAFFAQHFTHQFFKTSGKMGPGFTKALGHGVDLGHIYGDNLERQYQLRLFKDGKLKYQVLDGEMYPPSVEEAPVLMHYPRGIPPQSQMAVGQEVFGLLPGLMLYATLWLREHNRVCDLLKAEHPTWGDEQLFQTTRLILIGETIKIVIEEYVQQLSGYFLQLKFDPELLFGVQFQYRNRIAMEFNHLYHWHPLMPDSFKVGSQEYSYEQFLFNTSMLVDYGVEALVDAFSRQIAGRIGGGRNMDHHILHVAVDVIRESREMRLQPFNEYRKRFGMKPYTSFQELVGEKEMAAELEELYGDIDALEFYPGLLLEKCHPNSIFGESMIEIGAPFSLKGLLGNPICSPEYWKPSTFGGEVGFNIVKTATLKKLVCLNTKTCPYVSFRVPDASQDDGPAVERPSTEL

Structure (SMILES) | inhibitory activity against COX-1 (COX-1) | patients rating the study medication as good or excellent ([1]; 40 mg treatment group) [%] | patient's evaluation of effectiveness scores compared with placebo ([1]; each parecoxib treatment group) | proportion of patients taking rescue medication compared with placebo ([1]; parecoxib treatment groups 20, 40, 80 mg) | TRM compared with placebo ([1]; single doses 20 mg, 40 mg and 80 mg) | Patients taking rescue medication ([1]; single preemptive intravenous dose 20 mg) [%] | Median TRM (time to rescue medication) [1, 3] [h] | Patients taking rescue medication [1, 3] [%] | Patients taking rescue medication ([1]; single preemptive intravenous dose 80 mg) [%] | conversion to valdecoxib after parenteral administration ([2]; human subject, parenteral) | solubility thermodynamic (physchem; pH 7.3, aqueous buffer) [mg/mL] | solubility thermodynamic (physchem; pH 7.8, aqueous buffer) [mg/mL] | solubility thermodynamic (physchem; pH 8.2, aqueous buffer) [mg/mL] | time at which maximum blood plasma concentration of valdecoxib was reached ([2]; human, 20 mg IV bolus vs 20 mg valdecoxib oral immediate-release tablet)
Cc1onc(-c2ccccc2)c1-c1ccc(S(N)(=O)=O)cc1 [valdecoxib] | weak inhibitor |  |  |  |  |  |  |  |  |  |  |  |  | 
CCC(=O)NS(=O)(=O)c1ccc(-c2c(-c3ccccc3)noc2C)cc1 [Parecoxib, parecoxib] | weak in vitro inhibitory activity | 92 | significantly higher | significantly lower | significantly longer TRM than placebo | 78 | >24 | 48 | 59 | rapidly and completely converted to valdecoxib |  |  |  | 
CCC(=O)NS(=O)(=O)c1ccc(-c2c(-c3ccccc3)noc2C)cc1 [parecoxib sodium] |  |  |  |  |  |  |  |  |  |  | 1 | 18 | 220 | earlier
